Measurements reported in patent US10683310B2, “Compound for specifically binding to amyloid β-protein” (NEUBORON MEDTECH LTD., priority 2015, dated 2020).

Columns and labels:
[1] = test system: amyloid β-protein deposition plaques; experiment: Micro-PET scan of brain uptake in SAMP8 model mice and control mice; assay type: in vivo; conditions: for Cerebral cortex uptake of radiopharmaceuticals, Model mice / hippocampus uptake of radiopharmaceuticals, Model mice: SAMP8 model mice; for Cerebral cortex uptake of radiopharmaceuticals, Control mice / hippocampus uptake of radiopharmaceuticals, Control mice: normal control mice
Method: SAMP8 (senescence accelerated mouse prone 8) mice are the most common animal model of AD (Alzheimer's disease), in its brain there are a large number of amyloid deposition plaque. In this example, SAMP8 mice were used as model mice, and the normal mice were used as the control mice. Both the model mice and the control mice were 10 months old. The two mice were injected with 6-borono-2-(4-methylaminophenyl)benzothiazole containing labeling, and the Micro-PET scan is used to study whether 6-borono-2-(4-methylaminophenyl)benzothiazole and amyloid β-protein have specific binding properties. Model mice and control mice weighing 31.5±0.3 g were selected, 31.0±0.6 μCi of ^11C labelled 6-borono-2-(4-methylaminophenyl)benzothiazole were injected thereto, and Micro-PET of Model INVEON from Siemens were used for scan, where the scanning window was 350-650 KeV.
It is well known to those skilled in the art that the major cause of Alzheimer's disease is that the amyloid β-protein deposition plaques accumulate in the cerebral cortex and hippocampus of the brain. In this example, Micro-PET scanned and compared the brains of the model and control mice using PMOD software. And the absorption of radioactive 6-borono-2-(4-methylaminophenyl)benzothiazole in the cerebral cortex and hippocampus of SAMP8 model mice and control mice was determined, to further illustrate that the compound is capable of specifically binding to amyloid β-protein deposition plaques.

[2] = stability in vitro of 11C-labeled compound determined by HPLC; assay type: physicochemical
Method: The stability of IIC-labeled 6-borono-2-(4-methylaminophenyl)benzothiazole in vitro was determined by HPLC, at selected time of 30 min and 60 min. […] Therefore, the radioactive chemical purity of the IIC-labeled radioactive compound met the experimental requirements.

CNc1ccc(-c2nc3ccc(B(O)O)cc3s2)cc1 [6-borono-2-(4-methylaminophenyl)benzothiazole]
Cerebral cortex uptake Ratio (model mice/control mice) ([1]; 5 min after injection): 1.9 | hippocampus uptake Ratio (model mice/control mice) ([1]; 5 min after injection): 1.9 | Cerebral cortex uptake Ratio (model mice/control mice) ([1]; 15 min after injection): 1.9 | hippocampus uptake Ratio (model mice/control mice) ([1]; 15 min after injection): 2.3 | Cerebral cortex uptake Ratio (model mice/control mice) ([1]; 25 min after injection): 2.4 | hippocampus uptake Ratio (model mice/control mice) ([1]; 25 min after injection): 3.2 | Cerebral cortex uptake Ratio (model mice/control mice) ([1]; 35 min after injection): 2.7 | hippocampus uptake Ratio (model mice/control mice) ([1]; 35 min after injection): 3.2 | Cerebral cortex uptake of radiopharmaceuticals, Model mice ([1]; 5 min after injection): 3.03 % ID/g | hippocampus uptake of radiopharmaceuticals, Model mice ([1]; 5 min after injection): 3.44 % ID/g | Cerebral cortex uptake of radiopharmaceuticals, Model mice ([1]; 15 min after injection): 2.88 % ID/g | hippocampus uptake of radiopharmaceuticals, Model mice ([1]; 15 min after injection): 3.50 % ID/g | Cerebral cortex uptake of radiopharmaceuticals, Model mice ([1]; 25 min after injection): 2.79 % ID/g | hippocampus uptake of radiopharmaceuticals, Model mice ([1]; 25 min after injection): 3.45 % ID/g | Cerebral cortex uptake of radiopharmaceuticals, Model mice ([1]; 35 min after injection): 2.68 % ID/g | hippocampus uptake of radiopharmaceuticals, Model mice ([1]; 35 min after injection): 3.27 % ID/g | brain radiopharmaceutical absorption (PET image) ([1]; SAMP8 model mouse versus control mice, 30 min after injection, FIGS. 5A and 5B): accumulated a large amount of radiopharmaceuticals relative to the brain of the control mice | Cerebral cortex uptake of radiopharmaceuticals, Control mice ([1]; 5 min after injection): 1.61 % ID/g | hippocampus uptake of radiopharmaceuticals, Control mice ([1]; 5 min after injection): 1.80 % ID/g | Cerebral cortex uptake of radiopharmaceuticals, Control mice ([1]; 15 min after injection): 1.48 % ID/g | hippocampus uptake of radiopharmaceuticals, Control mice ([1]; 15 min after injection): 1.49 % ID/g | Cerebral cortex uptake of radiopharmaceuticals, Control mice ([1]; 25 min after injection): 1.17 % ID/g | hippocampus uptake of radiopharmaceuticals, Control mice ([1]; 25 min after injection): 1.09 % ID/g | Cerebral cortex uptake of radiopharmaceuticals, Control mice ([1]; 35 min after injection): 0.99 % ID/g | hippocampus uptake of radiopharmaceuticals, Control mice ([1]; 35 min after injection): 1.01 % ID/g | radioactive chemical purity (stability in vitro) ([2]; 30 min): 100% | radioactive chemical purity (stability in vitro) ([2]; 60 min): 100%
